Data as given in patent publication US12133922B2, “Abuse resistant capsule” (R.P. Scherer Technologies, LLC, priority 2013, dated 2024).
Counter-ions that a name gives are not always drawn.

Test: aqueous, methanol and acidic extraction of capsule fill, assay by HPLC
Assay type: physicochemical
Description: In order to ascertain the resistance to aqueous and acidic extraction, the fill mass of 10 capsules was mixed with different amounts of purified water (5 mL/caps. and 10 mL/caps.) and extracted for 1, 3 or 5 days. Further, the fill mass of 10 capsules was mixed with 20 mL of methanol and was extracted for 3 days.
The fill mass of 10 capsules of Formulation A or Formulation B was mixed with 20 mL of 0.1 N hydrochloric acid and extracted for one day. Comparison solutions of Pseudoephedrine HCl (labeled as API in the table below) were prepared. After an extraction of the formulation/solvent mixture, the mixtures were centrifugated and the assay of pseudoephedrine HCl was analyzed by HPLC. Even after centrifugation the solutions were turbid. The results were normalized to a capsule containing 1164.8 mg of pseudoephedrine HCl.

## CN[C@@H](C)[C@@H](O)c1ccccc1 [API, Pseudoephedrine HCl]
Comparison solution, 1 day, 50 mL water
  Calculated Mass of recoverable Pseudoephedrine HCl: 1026.0 mg
Comparison solution, 3 days, 50 mL water
  Calculated Mass of recoverable Pseudoephedrine HCl: 1243.7 mg
Comparison solution, 5 days, 50 mL water
  Calculated Mass of recoverable Pseudoephedrine HCl: 1227.7 mg
Extraction 1 day, 20 mL HCl 0.1 mol/L with neutralisation
  Calculated Mass of recoverable Pseudoephedrine HCl: 1197.3 mg
Extraction 1 day, 20 mL HCl 0.1 mol/L without neutralisation
  Calculated Mass of recoverable Pseudoephedrine HCl: 1054.7 mg
Extraction 3 days, 20 mL methanol
  Calculated Mass of recoverable Pseudoephedrine HCl: 1165.6 mg
